Source: PMC3135787 (Antiviral research, 2011)

Experiments:
[1] = test system: ET replicon with NS5B P495L; assay: microbe, parasite or virus in culture; assay type: cell-based, HCV
[2] = test system: erythroid progenitor cells (CFU-E and BFU-E); assay: Human bone marrow stem cell toxicity, 14-day colony formation, erythroid; assay type: cell-based; conditions: 1 μg/mL (4 μM), 14 days
[3] = test system: myeloid progenitor cells (CFU-GM); assay: Human bone marrow stem cell toxicity, 14-day colony formation, myeloid; assay type: cell-based; conditions: 1 μg/mL (4 μM), 14 days
[4] = test system: ET replicon with NS5B M414T; assay: microbe, parasite or virus in culture; assay type: cell-based, HCV
[5] = test system: Human nucleoside diphosphate kinase (NDPK); assay: NDPK-mediated phosphorylation, coupled assay; assay type: biochemical
[6] = 8-day MTS cytotoxicity assay, Huh7; assay type: cell-based, human; conditions: human, Huh7 cells
[7] = 8-day MTS cytotoxicity assay, HepG2; assay type: cell-based, human; conditions: human, HepG2 cells
[8] = 8-day MTS cytotoxicity assay, BxPC3; assay type: cell-based, human; conditions: human, BxPC3 cells
[9] = 8-day MTS cytotoxicity assay, CEM; assay type: cell-based, human; conditions: human, CEM cells
[10] = test system: ET replicon with NS5B C316Y; assay: microbe, parasite or virus in culture; assay type: cell-based, HCV
recombinant human ADAL1 = target: T1, recombinant human ADAL1 (Homo sapiens, UniProt Q6DHV7); assay: ADAL1-mediated demethylation assay; assay type: biochemical; conditions: ADAL1, pH 6.7, 37°C
T1 sequence (Q6DHV7 1-355): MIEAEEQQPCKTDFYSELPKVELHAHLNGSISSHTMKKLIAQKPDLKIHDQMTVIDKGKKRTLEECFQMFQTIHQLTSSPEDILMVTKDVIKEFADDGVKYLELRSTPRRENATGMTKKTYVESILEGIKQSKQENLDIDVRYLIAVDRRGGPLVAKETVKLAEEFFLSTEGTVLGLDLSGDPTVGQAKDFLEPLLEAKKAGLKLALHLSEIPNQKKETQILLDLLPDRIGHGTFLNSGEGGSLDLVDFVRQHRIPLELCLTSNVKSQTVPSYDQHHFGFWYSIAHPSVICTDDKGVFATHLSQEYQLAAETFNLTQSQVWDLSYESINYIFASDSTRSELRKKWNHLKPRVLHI

[11] = Hepatitis C virus, read-out: EC90 Mutant replicon

COc1ccc2c(c1)C1CC1(N)Cn1c-2c(C2CCCCC2)c2ccc(C(=O)NS(=O)(=O)N(C)C)cc21 (stereo not drawn) [2-phenol indole, 5a-amino-12-cyclohexyl-N-(N,N-dimethylsulfamoyl)-3-methoxy-4b,5,5a,6-tetrahydrobenzo [3,4] cyclopropa [5,6] azepino [1,2-a] indole-9-carboxamide, reference compound]
EC90 [1, 11]: 60800 ± 19900 nM | EC90 fold change ([1]; P495L mutant EC90 normalised to wild-type): 51.9

O=c1[nH]cc(F)c(=O)[nH]1 [5-fluorouracil, 5-Fluorouracil, reference compound]
inhibition of BFU-E colony formation [2]: completely inhibited | inhibition of CFU-GM colony formation [3]: completely inhibited

CC(C)CCn1c(=O)c(C2=NS(=O)(=O)c3cc(N(C)S(C)(=O)=O)ccc3N2)c(O)c2cccn21 [Benzothiadiazine, N-{3-[4-Hydroxy-1-(3-methyl-butyl)-2-oxo-1,2-dihydro-pyrrolo[1,2-b]pyridazin-3-yl]-1,1-dioxo-1,4-dihydro-1λ^6-benzo[1,2,4]thiadiazin-7-yl}-N-methyl-methanesulfonamide, reference compound]
EC90 [4, 11]: 28400 ± 13700 nM | EC90 fold change ([4]; M414T mutant EC90 normalised to wild-type): 23.1

Nc1nc2c(ncn2[C@@H]2O[C@H](COP(=O)(O)OP(=O)(O)O)[C@@H](O)[C@H]2O)c(=O)[nH]1 [GDP, guanosine-5′-diphosphate, reference compound]
kcat (apparent) ([5]; 25 °C, PK contributed in the phosphorylation): 38.8 ± 5.0 s⁻¹ | Km ([5]; read-out: Km (apparent), 25 °C, PK contributed in the phosphorylation): 56.2 ± 4.9 µM

Nc1ccn([C@@H]2O[C@H](CO)[C@@H](O)C2(F)F)c(=O)n1 [Gemcitabine, 2′-deoxy-2′-difluorocytidine]
CC50 at 8 days [6]: < 1000 nM | CC50 at 8 days [7]: < 1000 nM | CC50 at 8 days [8]: < 1000 nM | CC50 at 8 days [9]: < 1000 nM

CNC(=O)c1c(-c2ccc(F)cc2)oc2cc(N(CCO)S(C)(=O)=O)c(C3CC3)cc12 [HCV-796, 5-cyclopropyl-2-(4-fluoro-phenyl)-6-[(2-hydroxy-ethyl)-methanesulfonyl-amino]-benzofuran-3-carboxylic acid methylamide, reference compound]
EC90 fold change ([10]; C316Y mutant EC90 normalised to wild-type): 73.9 | EC90 [10, 11]: 1920 ± 770 nM

CNc1ncnc2c1ncn2[C@@H]1O[C@H](COP(=O)(O)O)[C@@H](O)[C@H]1O [N^6-meAMP, N^6-methyl AMP, reference compound]
Km (recombinant human ADAL1): 12.5 ± 1.6 µM | kcat (recombinant human ADAL1): 1.58 ± 0.12 s⁻¹

COc1nc(N)nc2c1ncn2[C@@H]1O[C@H](COP(=O)(O)O)[C@@H](O)[C@H]1O [O^6-meGMP, O^6-methyl GMP, reference compound]
Km (recombinant human ADAL1): 5.2 ± 0.9 µM | kcat (recombinant human ADAL1): 2.33 ± 0.07 s⁻¹
